The text below walks through data of PubChem BioAssay AID212 (DTP/NCI, 2004).

Where “and” joins values, the source holds several entries; their conditions need not be identical. Equal entries are not always repeated. Inconclusive results are not listed.

This test concerns BDF1 mice, colon carcinoma 38 sc, T/C %. Description: NCI In Vivo Anticancer Drug Screen. Data for tumor model Colon Carcinoma 38 (subcutaneous) in B6D2F1 (BDF1) mice. In outline: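 T/C readout: treated group (T) measurement over vehicle control group (C) measurement. Endpoint is survival or tumor size in mice bearing a transplanted tumor.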
The mark [1] stands for this setting: endpoint: median tumor weight (est.), dose: 25.0 mg/kg/injection, schedule: Q07DX002 (ip), vehicle: saline, higher = larger tumour.
Setting [2] is: endpoint: median tumor weight (est.), dose: 50.0 mg/kg/injection, schedule: Q07DX002 (ip), vehicle: saline, higher = larger tumour.
Setting [3] is: endpoint: median tumor weight (est.), dose: 200.0 mg/kg/injection, schedule: Q07DX002 (ip), vehicle: saline, higher = larger tumour.
Setting [4] is: endpoint: median tumor weight (est.), dose: 50.0 mg/kg/injection, schedule: Q07DX002 (ip), vehicle: Klucel (hydroxypropylcellulose) (HPC), higher = larger tumour.
[5] abbreviates: endpoint: median tumor weight (est.), dose: 200.0 mg/kg/injection, schedule: Q07DX002 (ip), vehicle: Klucel (hydroxypropylcellulose) (HPC), higher = larger tumour.
Where [6] appears, read: endpoint: median tumor weight (est.), dose: 400.0 mg/kg/injection, schedule: Q07DX002 (ip), vehicle: Klucel (hydroxypropylcellulose) (HPC), higher = larger tumour.

In the case of `C[C@@H](CN1CC(=O)NC(=O)C1)N1CC(=O)NC(=O)C1`, the T/C reads like this: under setting [1], 87 % of control; under setting [2], 95 % of control; (endpoint: median tumor weight (est.), dose: 100.0 mg/kg/injection, schedule: Q07DX002 (ip), vehicle: saline, higher = larger tumour) 97 % of control; (endpoint: median tumor weight (est.), dose: 100.0 mg/kg/injection, schedule: Q07DX003 (ip), vehicle: saline, higher = larger tumour) 71 % of control; under setting [3], 110 % of control; (endpoint: median tumor weight (est.), dose: 200.0 mg/kg/injection, schedule: Q07DX003 (ip), vehicle: saline, higher = larger tumour) 71 % of control. The T/C is, setting by setting: (endpoint: median tumor weight (est.), dose: 400.0 mg/kg/injection, schedule: Q07DX002 (ip), vehicle: saline, higher = larger tumour) 93 % of control; (endpoint: median tumor weight (est.), dose: 400.0 mg/kg/injection, schedule: Q07DX003 (ip), vehicle: saline, higher = larger tumour) 71 % of control; (endpoint: median tumor weight (est.), dose: 800.0 mg/kg/injection, schedule: Q07DX002 (ip), vehicle: saline, higher = larger tumour) 66 % of control; (endpoint: median tumor weight (est.), dose: 800.0 mg/kg/injection, schedule: Q07DX003 (ip), vehicle: saline, higher = larger tumour) 38 % of control.
With `CC(=O)C1(O)Cc2c(O)c3c(c(O)c2C(OC2CC(N)C(O)C(C)O2)C1)C(=O)c1ccccc1C3=O` (configuration not stated), the T/C (endpoint: median survival time, dose: 1.4 mg/kg/injection, schedule: Q07DX002 (iv), vehicle: saline, higher = longer survival) is 118 % of control; the T/C (endpoint: median tumor weight (est.), dose: 0.37 mg/kg/injection, schedule: Q07DX002 (ip), vehicle: saline, higher = larger tumour) is 66 % of control; the T/C (endpoint: median tumor weight (est.), dose: 0.75 mg/kg/injection, schedule: Q07DX002 (ip), vehicle: saline, higher = larger tumour) was 67 % of control.
With `CC[C@H]1CN2CCc3cc(OC)c(OC)cc3[C@@H]2C[C@@H]1C[C@H]1NCCc2cc(OC)c(OC)cc21`, the T/C was 57 % of control (endpoint: median tumor weight (est.), dose: 1.75 mg/kg/injection, schedule: Q07DX002 (ip), vehicle: saline, higher = larger tumour); 74 % of control (endpoint: median tumor weight (est.), dose: 3.5 mg/kg/injection, schedule: Q07DX002 (ip), vehicle: saline, higher = larger tumour); 84 % of control (endpoint: median tumor weight (est.), dose: 7.0 mg/kg/injection, schedule: Q07DX002 (ip), vehicle: saline, higher = larger tumour); 89 % of control (endpoint: median tumor weight (est.), dose: 14.0 mg/kg/injection, schedule: Q07DX002 (ip), vehicle: saline, higher = larger tumour); 74 % of control (endpoint: median tumor weight (est.), dose: 28.0 mg/kg/injection, schedule: Q07DX002 (ip), vehicle: saline, higher = larger tumour).
For `Cc1c2ccccc2c(C)c2c1cc(C(=O)O)c1ccccc12`, the T/C runs as follows: (endpoint: median tumor weight (est.), dose: 62.5 mg/kg/injection, schedule: Q07DX002 (ip), vehicle: other, higher = larger tumour) 67 % of control; (endpoint: median tumor weight (est.), dose: 125.0 mg/kg/injection, schedule: Q07DX002 (ip), vehicle: other, higher = larger tumour) 101 % of control; (endpoint: median tumor weight (est.), dose: 250.0 mg/kg/injection, schedule: Q07DX002 (ip), vehicle: other, higher = larger tumour) 152 % of control; (endpoint: median tumor weight (est.), dose: 500.0 mg/kg/injection, schedule: Q07DX002 (ip), vehicle: other, higher = larger tumour) 58 % of control; (endpoint: median tumor weight (est.), dose: 1000.0 mg/kg/injection, schedule: Q07DX002 (ip), vehicle: other, higher = larger tumour) 87 % of control.
In the case of `CC1(C)N=C(N)N=C(N)N1c1ccc(CCCCc2ccc(S(=O)(=O)F)cc2Cl)c(Cl)c1`, the T/C runs as follows: (endpoint: median survival time, dose: 35.0 mg/kg/injection, schedule: Q01DX013 (ip), vehicle: saline with Tween-80, higher = longer survival) 117 % of control; (endpoint: median survival time, dose: 92.0 mg/kg/injection, schedule: Q01DX013 (ip), vehicle: saline with Tween-80, higher = longer survival) 157 % of control; (endpoint: median tumor weight (est.), dose: 6.25 mg/kg/injection, schedule: Q07DX002 (ip), vehicle: saline, higher = larger tumour) 44 % of control; under setting [2], 78 % of control; under setting [3], 1 % of control and 24 % of control and 26 % of control.
As to `[N-]=[N+]=CC(=O)CCC(N)C(=O)O` (configuration not stated), the T/C is 57 % of control (endpoint: median tumor weight (est.), dose: 0.78 mg/kg/injection, schedule: Q07DX003 (ip), vehicle: saline, higher = larger tumour); 48 % of control (endpoint: median tumor weight (est.), dose: 1.56 mg/kg/injection, schedule: Q07DX003 (ip), vehicle: saline, higher = larger tumour); 73 % of control (endpoint: median tumor weight (est.), dose: 3.13 mg/kg/injection, schedule: Q07DX003 (ip), vehicle: saline, higher = larger tumour); 10 % of control (endpoint: median tumor weight (est.), dose: 50.0 mg/kg/injection, schedule: Q07DX003 (ip), vehicle: saline, higher = larger tumour).
For `CN=S(=O)(OCCCCCOS(=O)(=NC)c1ccc(C)cc1)c1ccc(C)cc1` (configuration not stated), the T/C (endpoint: median tumor weight (est.), dose: 50.0 mg/kg/injection, schedule: Q07DX002 (ip), vehicle: saline with Tween-80, higher = larger tumour) was 71 % of control and 94 % of control; the T/C (endpoint: median tumor weight (est.), dose: 100.0 mg/kg/injection, schedule: Q07DX002 (ip), vehicle: saline with Tween-80, higher = larger tumour) was 65 % of control and 89 % of control; the T/C (endpoint: median tumor weight (est.), dose: 200.0 mg/kg/injection, schedule: Q07DX002 (ip), vehicle: saline with Tween-80, higher = larger tumour) is 96 % of control; the T/C (endpoint: median tumor weight (est.), dose: 400.0 mg/kg/injection, schedule: Q07DX002 (ip), vehicle: saline with Tween-80, higher = larger tumour) was 61 % of control.
As for `OCC1OC(n2cnc3c(NO)ncnc32)C(O)C1O` (configuration not stated), the T/C by setting is: (endpoint: median tumor weight (est.), dose: 12.5 mg/kg/injection, schedule: Q07DX002 (ip), vehicle: Klucel (hydroxypropylcellulose) (HPC), higher = larger tumour) 88 % of control and 96 % of control; (endpoint: median tumor weight (est.), dose: 25.0 mg/kg/injection, schedule: Q07DX002 (ip), vehicle: Klucel (hydroxypropylcellulose) (HPC), higher = larger tumour) 89 % of control and 91 % of control; under setting [4], 121 % of control and 100 % of control; under setting [5], 118 % of control; under setting [6], 96 % of control and 106 % of control.
Take `COc1cc2c3c(cccc3c1)C(=O)N(CCN(C)C)C2=O`: the T/C runs as follows: (endpoint: median tumor weight (est.), dose: 10.0 mg/kg/injection, schedule: Q07DX002 (ip), vehicle: saline with Tween-80, higher = larger tumour) 86 % of control and 103 % of control; (endpoint: median tumor weight (est.), dose: 40.0 mg/kg/injection, schedule: Q07DX002 (ip), vehicle: saline with Tween-80, higher = larger tumour) 73 % of control and 92 % of control; (endpoint: median tumor weight (est.), dose: 80.0 mg/kg/injection, schedule: Q07DX002 (ip), vehicle: saline with Tween-80, higher = larger tumour) 72 % of control; (endpoint: median tumor weight (est.), dose: 160.0 mg/kg/injection, schedule: Q07DX002 (ip), vehicle: saline with Tween-80, higher = larger tumour) 73 % of control.
For `CC1C=NNC1=O` (configuration not stated), the T/C runs as follows: under setting [4], 84 % of control; (endpoint: median tumor weight (est.), dose: 100.0 mg/kg/injection, schedule: Q07DX002 (ip), vehicle: Klucel (hydroxypropylcellulose) (HPC), higher = larger tumour) 91 % of control and 96 % of control; under setting [5], 97 % of control and 98 % of control; under setting [6], 76 % of control.
`COc1cccc2c1C(=O)c1c(O)c3c(c(O)c1C2=O)CC(O)(C(=O)CO)CC3OC1CC(N)C(O)C(C)O1` (configuration not stated): the T/C reads like this: (endpoint: median survival time, dose: 41.0 mg/kg/injection, schedule: Q07DX002 (iv), vehicle: saline, higher = longer survival) 93 % of control; (endpoint: median survival time, dose: 64.0 mg/kg/injection, schedule: Q07DX002 (iv), vehicle: saline, higher = longer survival) 104 % of control; (endpoint: median survival time, dose: 100.0 mg/kg/injection, schedule: Q07DX002 (iv), vehicle: saline, higher = longer survival) 122 % of control; (endpoint: median survival time, dose: 155.0 mg/kg/injection, schedule: Q07DX002 (iv), vehicle: saline, higher = longer survival) 124 % of control; (endpoint: median tumor weight (est.), dose: 6.25 mg/kg/injection, schedule: Q07DX002 (ip), vehicle: water, higher = larger tumour) 110 % of control; (endpoint: median tumor weight (est.), dose: 12.5 mg/kg/injection, schedule: Q07DX002 (ip), vehicle: water, higher = larger tumour) 100 % of control. Moreover, the T/C runs as follows: (endpoint: median tumor weight (est.), dose: 20.25 mg/kg/injection, schedule: Q07DX002 (ip), vehicle: saline, higher = larger tumour) 51 % of control; under setting [1], 81 % of control and 86 % of control; (endpoint: median tumor weight (est.), dose: 25.0 mg/kg/injection, schedule: Q07DX002 (ip), vehicle: water, higher = larger tumour) 100 % of control; (endpoint: median tumor weight (est.), dose: 40.5 mg/kg/injection, schedule: Q07DX002 (ip), vehicle: saline, higher = larger tumour) 123 % of control; (endpoint: median tumor weight (est.), dose: 81.0 mg/kg/injection, schedule: Q07DX002 (ip), vehicle: saline, higher = larger tumour) 52 % of control; (endpoint: median tumor weight (est.), dose: 81.0 mg/kg/injection, schedule: Q07DX002 (ip), vehicle: water, higher = larger tumour) 56 % of control. Besides, the T/C was 83 % of control (endpoint: median tumor weight (est.), dose: 100.0 mg/kg/injection, schedule: Q07DX002 (ip), vehicle: water, higher = larger tumour); 44 % of control (endpoint: median tumor weight (est.), dose: 162.0 mg/kg/injection, schedule: Q07DX002 (ip), vehicle: saline, higher = larger tumour); 19 % of control under setting [3]; 53 % of control (endpoint: median tumor weight (est.), dose: 200.0 mg/kg/injection, schedule: Q07DX002 (ip), vehicle: water, higher = larger tumour); 14 % of control (endpoint: median tumor weight (est.), dose: 324.0 mg/kg/injection, schedule: Q07DX002 (ip), vehicle: saline, higher = larger tumour).
Regarding `COCC(O)Cn1ccnc1[N+](=O)[O-]` (configuration not stated), the T/C reads like this: (endpoint: median tumor weight (est.), dose: 12.5 mg/kg/injection, schedule: Q07DX003 (ip), vehicle: water, higher = larger tumour) 85 % of control; (endpoint: median tumor weight (est.), dose: 25.0 mg/kg/injection, schedule: Q07DX003 (ip), vehicle: water, higher = larger tumour) 90 % of control; (endpoint: median tumor weight (est.), dose: 50.0 mg/kg/injection, schedule: Q07DX003 (ip), vehicle: water, higher = larger tumour) 100 % of control; (endpoint: median tumor weight (est.), dose: 100.0 mg/kg/injection, schedule: Q07DX003 (ip), vehicle: water, higher = larger tumour) 118 % of control; (endpoint: median tumor weight (est.), dose: 200.0 mg/kg/injection, schedule: Q07DX003 (ip), vehicle: water, higher = larger tumour) 72 % of control; (endpoint: median tumor weight (est.), dose: 400.0 mg/kg/injection, schedule: Q07DX003 (ip), vehicle: water, higher = larger tumour) 86 % of control.
